Reference: BindingDB's records for patent US20250011272 (Shanghaiinstitute of Materia Medica, 2025)
pIC50: −log10 of the molar value.

Target: T1, ATP-citrate synthase (Homo sapiens, UniProt P53396)
T1 sequence (P53396 whole entry): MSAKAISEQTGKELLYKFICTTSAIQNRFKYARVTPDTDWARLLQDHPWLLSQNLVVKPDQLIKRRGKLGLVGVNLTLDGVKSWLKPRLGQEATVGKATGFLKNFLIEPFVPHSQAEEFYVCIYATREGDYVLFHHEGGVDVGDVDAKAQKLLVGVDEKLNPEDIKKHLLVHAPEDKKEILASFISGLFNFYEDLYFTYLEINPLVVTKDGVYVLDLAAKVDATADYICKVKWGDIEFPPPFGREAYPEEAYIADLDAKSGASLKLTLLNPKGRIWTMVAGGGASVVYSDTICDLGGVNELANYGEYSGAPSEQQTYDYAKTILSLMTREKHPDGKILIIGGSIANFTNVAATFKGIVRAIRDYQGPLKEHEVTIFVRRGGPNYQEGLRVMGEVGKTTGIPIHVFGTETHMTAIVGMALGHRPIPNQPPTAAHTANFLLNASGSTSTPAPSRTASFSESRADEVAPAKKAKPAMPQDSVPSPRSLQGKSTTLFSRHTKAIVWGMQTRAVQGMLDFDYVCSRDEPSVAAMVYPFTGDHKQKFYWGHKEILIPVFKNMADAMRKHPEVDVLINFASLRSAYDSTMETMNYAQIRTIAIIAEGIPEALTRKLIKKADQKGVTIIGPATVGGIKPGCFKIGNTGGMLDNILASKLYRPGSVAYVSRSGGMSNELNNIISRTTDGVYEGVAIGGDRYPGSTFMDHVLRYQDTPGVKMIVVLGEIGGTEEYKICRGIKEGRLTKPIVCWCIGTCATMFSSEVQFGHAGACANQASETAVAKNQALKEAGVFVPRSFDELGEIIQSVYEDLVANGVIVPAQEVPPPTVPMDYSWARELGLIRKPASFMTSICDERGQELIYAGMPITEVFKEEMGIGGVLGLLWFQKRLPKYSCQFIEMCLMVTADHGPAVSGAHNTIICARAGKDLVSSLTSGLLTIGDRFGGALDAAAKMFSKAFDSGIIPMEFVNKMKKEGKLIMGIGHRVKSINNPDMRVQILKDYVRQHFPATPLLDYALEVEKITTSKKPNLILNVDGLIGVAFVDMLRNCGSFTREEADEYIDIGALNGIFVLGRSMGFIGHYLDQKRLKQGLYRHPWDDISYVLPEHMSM
Test: ACLY Enzyme Activity Assay
Method: Experimental method: ADP Glo luminescence method was used for determination. It reflects the activity of ACLY enzyme by quantitatively detecting the amount of ADP, and the enzymatic reaction catalyzed by ACLY is proportional to the amount of ADP detected by the luminescent signal. Firstly, the compound is diluted with 10% DMSO, and then […] of compound dilution is added to a 5 μl reaction system, so that the final reaction system has a DMSO content of 2%. The enzymatic reaction catalyzed by ACLY was carried out at 37° C. for 30 minutes. 5 μl reaction mixture contained the following components: 40 mM Tris, pH 8.0, 10 mM MgCl2, 5 mM DTT, ATP, CoA, sodium citrate, and ACLY. After the enzymatic reaction was complete, 2.5 μl of ADP Glo reagent was added to each reaction system and incubated at room temperature for 1 hour. Afterwards, 5 μl of kinase detection reagent was added and incubated at room temperature for 30 minutes. The luminous signal was detected using Envision (PerkinElmer, USA).

Row | pIC50 | SMILES
1 | 5.89 | O=C(O)c1ccc(-c2ccc(N3CCN(C(=O)c4ccc(/C(=C/CCCCCCC5(C(=O)O)C=CCC5)CCCCCCC5(C(=O)O)C=CCC5)cc4)CC3)nc2)cc1 (stereo unspecified) [US20250011272, Example M39]
2 | 5.77 | O=C(c1ccc(/C(=C/CCCCCCC2(C(=O)O)C=CCC2)CCCCCCC2(C(=O)O)C=CCC2)cc1)N1CCN(c2ccccc2F)CC1 (stereo unspecified) [US20250011272, Example M40]

Continued, compound first:

Row | SMILES | pIC50
3 | CC(CCCCCC/C=C/CCCCCCC(C)(C(=O)O)c1ccccc1)(C(=O)O)c1ccccc1 (stereo unspecified) [US20250011272, Example M16] | 5.40
4 | O=C(O)C1(CCCCCC/C=C/CCCCCCC2(C(=O)O)CC=CC2)CC=CC1 [US20250011272, Example M17] | 5.51
5 | O=C(O)C1(CCCCCC/C=C/CCCCCCC2(C(=O)O)CCCCC2)CCCCC1 [US20250011272, Example M18] | 4.78
6 | O=C(c1ccc(/C(=C/CCCCCCC2(C(=O)O)C=CCC2)CCCCCCC2(C(=O)O)C=CCC2)cc1)N1CCN(c2ccccn2)CC1 (stereo unspecified) [US20250011272, Example M38] | 6.12
